# Experimental data reported in paper PMC5559489 (Scientific Reports, 2017).
# How the values were obtained:
# [1] = biological target: seasonal influenza B virus neuraminidase (NA) (Influenza B virus, UniProt C0LT34); format: biochemical
# [2] = biological target: seasonal influenza A(H3N2) virus neuraminidase (NA) (Influenza A virus, UniProt V9SU56); format: biochemical
compound,measurement,setting,value
"CCOC(=O)C1=C[C@@H](OC(CC)CC)[C@H](NC(C)=O)[C@@H](N)C1 [oseltamivir, Oseltamivir]",susceptibility to oseltamivir (WHO definition),[1],sensitive
same,susceptibility to oseltamivir (WHO definition),[2],sensitive
